Data as given in the supplement of paper PMC13207355.
Structures can show the parent of a compound that is named as a salt.

How the values were obtained:
Conditions in all cases: exposure time: 72 h
[1] = test system: E57 (patient-derived glioblastoma stem cells of mesenchymal subtype); test: phenotypic distance (Euclidean, principal components) from DMSO controls (arbitrary units); higher = stronger morphological change
[2] = test system: FT3469 (normal neural stem cell line); test: as above
[3] = test system: E13 (patient-derived glioblastoma stem cells of classical subtype); test: as above
[4] = test system: E28 (patient-derived glioblastoma stem cells of classical subtype); test: as above
[5] = test system: E31 (patient-derived glioblastoma stem cells of proneural subtype); test: as above
[6] = test system: E34 (patient-derived glioblastoma stem cells of proneural subtype); test: as above
[7] = test system: E21 (patient-derived glioblastoma stem cells of mesenchymal subtype); test: as above
[8] = test system: E57; test: surviving fraction (nuclei count normalised to DMSO); higher = more cells surviving (less toxic)
[9] = test system: FT3469; test: as above
[10] = test system: E13; test: as above
[11] = test system: E28; test: as above
[12] = test system: E31; test: as above
[13] = test system: E34; test: as above
[14] = test system: E21; test: as above
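For phenotypic distance (Euclidean, principal components) from DMSO controls in this document: cell Painting imaging in 384-well plates, CellProfiler features reduced to at least 20 principal components, Euclidean distance versus same-plate DMSO vehicle wells (0.1% v/v), median over six images per well.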
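For surviving fraction (nuclei count normalised to DMSO) in this document: nuclei counted by high-content imaging of Hoechst-stained cells in laminin-coated 384-well plates, relative to 0.1% DMSO vehicle wells, with staurosporine as cell-death control.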

COC(=O)Nc1nc2cc(C(=O)c3ccc(F)cc3)ccc2[nH]1 [Flubendazol]
Conditions	phenotypic distance	surviving fraction
[1], 4.1 nM	0.67	–
[1], 12.3 nM	0.423	–
[1], 37 nM	0.428	–
[1], 111.1 nM	1.31	–
[1], 333.3 nM	2.68	–
[1], 1000 nM	5.07	–
[1], 3000 nM	4.95	–
[2], 4.1 nM	0.499	–
[2], 12.3 nM	0.843	–
[2], 37 nM	0.655	–
[2], 111.1 nM	0.943	–
[2], 333.3 nM	2.08	–
[2], 1000 nM	3.42	–
[2], 3000 nM	3.26	–
[3], 4.1 nM	0.372	–
[3], 12.3 nM	0.737	–
[3], 37 nM	0.86	–
[3], 111.1 nM	1.59	–
[3], 333.3 nM	3.72	–
[3], 1000 nM	6.11	–
[3], 3000 nM	6.68	–
[4], 4.1 nM	0.523	–
[4], 12.3 nM	0.55	–
[4], 37 nM	0.574	–
[4], 111.1 nM	1.08	–
[4], 333.3 nM	1.98	–
[4], 1000 nM	3.45	–
[4], 3000 nM	3.81	–
[5], 4.1 nM	0.507	–
[5], 12.3 nM	0.548	–
[5], 37 nM	0.79	–
[5], 111.1 nM	1.36	–
[5], 333.3 nM	3.16	–
[5], 1000 nM	5.22	–
[5], 3000 nM	7.77	–
[6], 4.1 nM	0.541	–
[6], 12.3 nM	0.863	–
[6], 37 nM	0.46	–
[6], 111.1 nM	1.21	–
[6], 333.3 nM	1.98	–
[6], 1000 nM	3.35	–
[6], 3000 nM	4.79	–
[7], 4.1 nM	0.658	–
[7], 12.3 nM	1.03	–
[7], 37 nM	0.833	–
[7], 111.1 nM	1.63	–
[7], 333.3 nM	2.94	–
[7], 1000 nM	7.4	–
[7], 3000 nM	7.27	–
[8], 4.1 nM	–	0.998
[8], 12.3 nM	–	0.941
[8], 37 nM	–	1.06
[8], 111.1 nM	–	0.996
[8], 333.3 nM	–	0.739
[8], 1000 nM	–	0.134
[8], 3000 nM	–	0.0682
[9], 4.1 nM	–	1.16
[9], 12.3 nM	–	0.827
[9], 37 nM	–	0.997
[9], 111.1 nM	–	0.747
[9], 333.3 nM	–	0.644
[9], 1000 nM	–	0.524
[9], 3000 nM	–	0.564
[10], 4.1 nM	–	0.992
[10], 12.3 nM	–	1.12
[10], 37 nM	–	1.11
[10], 111.1 nM	–	0.943
[10], 333.3 nM	–	0.471
[10], 1000 nM	–	0.261
[10], 3000 nM	–	0.234
[11], 4.1 nM	–	1.07
[11], 12.3 nM	–	1.09
[11], 37 nM	–	1.02
[11], 111.1 nM	–	1.02
[11], 333.3 nM	–	0.67
[11], 1000 nM	–	0.361
[11], 3000 nM	–	0.234
[12], 4.1 nM	–	0.887
[12], 12.3 nM	–	0.95
[12], 37 nM	–	0.807
[12], 111.1 nM	–	0.615
[12], 333.3 nM	–	0.329
[12], 1000 nM	–	0.118
[12], 3000 nM	–	0.0708
[13], 4.1 nM	–	1.14
[13], 12.3 nM	–	0.942
[13], 37 nM	–	0.985
[13], 111.1 nM	–	0.904
[13], 333.3 nM	–	0.661
[13], 1000 nM	–	0.473
[13], 3000 nM	–	0.324
[14], 4.1 nM	–	1.09
[14], 12.3 nM	–	0.929
[14], 37 nM	–	0.954
[14], 111.1 nM	–	0.885
[14], 333.3 nM	–	0.777
[14], 1000 nM	–	0.161
[14], 3000 nM	–	0.137

OCCN1CCN(CCCN2c3ccccc3Sc3ccc(C(F)(F)F)cc32)CC1 [Fluphenazine dihydrochloride]
Conditions	phenotypic distance	surviving fraction
[1], 4.1 nM	0.619	–
[1], 12.3 nM	0.504	–
[1], 37 nM	0.711	–
[1], 111.1 nM	0.787	–
[1], 333.3 nM	0.901	–
[1], 1000 nM	0.778	–
[1], 3000 nM	1.6	–
[2], 4.1 nM	0.785	–
[2], 12.3 nM	0.668	–
[2], 37 nM	0.632	–
[2], 111.1 nM	0.808	–
[2], 333.3 nM	0.87	–
[2], 1000 nM	1.41	–
[2], 3000 nM	1.36	–
[3], 4.1 nM	0.431	–
[3], 12.3 nM	0.337	–
[3], 37 nM	0.907	–
[3], 111.1 nM	0.69	–
[3], 333.3 nM	1.57	–
[3], 1000 nM	1.8	–
[3], 3000 nM	2.01	–
[4], 4.1 nM	0.832	–
[4], 12.3 nM	0.622	–
[4], 37 nM	0.706	–
[4], 111.1 nM	0.624	–
[4], 333.3 nM	0.662	–
[4], 1000 nM	0.755	–
[4], 3000 nM	0.877	–
[5], 4.1 nM	0.66	–
[5], 12.3 nM	0.671	–
[5], 37 nM	0.803	–
[5], 111.1 nM	1.17	–
[5], 333.3 nM	1.95	–
[5], 1000 nM	2.4	–
[5], 3000 nM	2.16	–
[6], 4.1 nM	0.947	–
[6], 12.3 nM	0.375	–
[6], 37 nM	0.734	–
[6], 111.1 nM	0.93	–
[6], 333.3 nM	1.15	–
[6], 1000 nM	0.764	–
[6], 3000 nM	1.17	–
[7], 4.1 nM	0.339	–
[7], 12.3 nM	0.421	–
[7], 37 nM	0.601	–
[7], 111.1 nM	0.795	–
[7], 333.3 nM	0.745	–
[7], 1000 nM	0.728	–
[7], 3000 nM	1.26	–
[8], 4.1 nM	–	1.02
[8], 12.3 nM	–	1.03
[8], 37 nM	–	1.03
[8], 111.1 nM	–	1
[8], 333.3 nM	–	1.12
[8], 1000 nM	–	1.02
[8], 3000 nM	–	1.15
[9], 4.1 nM	–	0.838
[9], 12.3 nM	–	1.09
[9], 37 nM	–	0.931
[9], 111.1 nM	–	1
[9], 333.3 nM	–	1.04
[9], 1000 nM	–	0.894
[9], 3000 nM	–	0.84
[10], 4.1 nM	–	0.959
[10], 12.3 nM	–	1.02
[10], 37 nM	–	1
[10], 111.1 nM	–	1
[10], 333.3 nM	–	0.966
[10], 1000 nM	–	0.816
[10], 3000 nM	–	0.804
[11], 4.1 nM	–	1.13
[11], 12.3 nM	–	0.846
[11], 37 nM	–	1.1
[11], 111.1 nM	–	1.04
[11], 333.3 nM	–	0.899
[11], 1000 nM	–	0.923
[11], 3000 nM	–	1.05
[12], 4.1 nM	–	1.01
[12], 12.3 nM	–	1.18
[12], 37 nM	–	1.02
[12], 111.1 nM	–	0.932
[12], 333.3 nM	–	1.09
[12], 1000 nM	–	1.22
[12], 3000 nM	–	1.13
[13], 4.1 nM	–	0.901
[13], 12.3 nM	–	0.986
[13], 37 nM	–	0.911
[13], 111.1 nM	–	0.993
[13], 333.3 nM	–	1.2
[13], 1000 nM	–	1.05
[13], 3000 nM	–	1.06
[14], 4.1 nM	–	0.932
[14], 12.3 nM	–	0.986
[14], 37 nM	–	1.08
[14], 111.1 nM	–	0.96
[14], 333.3 nM	–	1.01
[14], 1000 nM	–	0.989
[14], 3000 nM	–	0.938

Nc1nc(=O)c2nc(CNc3ccc(C(=O)N[C@@H](CCC(=O)O)C(=O)O)cc3)cnc2[nH]1 [Folic acid]
Conditions	phenotypic distance	surviving fraction
[1], 4.1 nM	0.364	–
[1], 12.3 nM	0.555	–
[1], 37 nM	0.5	–
[1], 111.1 nM	0.927	–
[1], 333.3 nM	0.637	–
[1], 1000 nM	0.333	–
[1], 3000 nM	0.748	–
[2], 4.1 nM	0.931	–
[2], 12.3 nM	0.68	–
[2], 37 nM	0.676	–
[2], 111.1 nM	0.509	–
[2], 333.3 nM	0.439	–
[2], 1000 nM	1.06	–
[2], 3000 nM	0.675	–
[3], 4.1 nM	0.778	–
[3], 12.3 nM	0.355	–
[3], 37 nM	0.501	–
[3], 111.1 nM	0.396	–
[3], 333.3 nM	0.695	–
[3], 1000 nM	0.593	–
[3], 3000 nM	0.805	–
[4], 4.1 nM	0.522	–
[4], 12.3 nM	0.383	–
[4], 37 nM	0.987	–
[4], 111.1 nM	0.572	–
[4], 333.3 nM	0.378	–
[4], 1000 nM	0.745	–
[4], 3000 nM	0.583	–
[5], 4.1 nM	0.277	–
[5], 12.3 nM	0.448	–
[5], 37 nM	0.256	–
[5], 111.1 nM	0.408	–
[5], 333.3 nM	0.439	–
[5], 1000 nM	0.452	–
[5], 3000 nM	0.335	–
[6], 4.1 nM	1.01	–
[6], 12.3 nM	0.395	–
[6], 37 nM	0.531	–
[6], 111.1 nM	0.763	–
[6], 333.3 nM	0.579	–
[6], 1000 nM	0.38	–
[6], 3000 nM	0.822	–
[7], 4.1 nM	0.612	–
[7], 12.3 nM	0.186	–
[7], 37 nM	0.499	–
[7], 111.1 nM	0.624	–
[7], 333.3 nM	0.464	–
[7], 1000 nM	0.432	–
[7], 3000 nM	0.539	–
[8], 4.1 nM	–	1.03
[8], 12.3 nM	–	1.03
[8], 37 nM	–	0.994
[8], 111.1 nM	–	0.948
[8], 333.3 nM	–	1.01
[8], 1000 nM	–	1.03
[8], 3000 nM	–	0.903
[9], 4.1 nM	–	1.16
[9], 12.3 nM	–	1.03
[9], 37 nM	–	1.12
[9], 111.1 nM	–	1.01
[9], 333.3 nM	–	1.05
[9], 1000 nM	–	1.1
[9], 3000 nM	–	0.939
[10], 4.1 nM	–	0.982
[10], 12.3 nM	–	1.06
[10], 37 nM	–	0.964
[10], 111.1 nM	–	1
[10], 333.3 nM	–	1.17
[10], 1000 nM	–	1.02
[10], 3000 nM	–	1.21
[11], 4.1 nM	–	0.971
[11], 12.3 nM	–	1.05
[11], 37 nM	–	1.11
[11], 111.1 nM	–	0.954
[11], 333.3 nM	–	1.01
[11], 1000 nM	–	1.31
[11], 3000 nM	–	0.925
[12], 4.1 nM	–	1.13
[12], 12.3 nM	–	0.968
[12], 37 nM	–	0.961
[12], 111.1 nM	–	0.969
[12], 333.3 nM	–	1.03
[12], 1000 nM	–	1.14
[12], 3000 nM	–	0.872
[13], 4.1 nM	–	1.15
[13], 12.3 nM	–	1.03
[13], 37 nM	–	0.979
[13], 111.1 nM	–	1.12
[13], 333.3 nM	–	0.974
[13], 1000 nM	–	1.04
[13], 3000 nM	–	0.925
[14], 4.1 nM	–	0.915
[14], 12.3 nM	–	1.07
[14], 37 nM	–	1
[14], 111.1 nM	–	1.07
[14], 333.3 nM	–	1.01
[14], 1000 nM	–	1.07
[14], 3000 nM	–	0.972
